# ChEMBL document CHEMBL5236655, “Role of symmetry in 3,3-diphenyl-1,3-dihydroindol-2-one derivatives as inhibitors of translation initiation” (Bioorg Med Chem Lett, 2023)
# Experiments:
# [1] = Antiproliferative activity against human CRL-2351 cells incubated for 5 days by SRB assay; format: functional, cell-based; conditions: CRL-2351, 120 h
# [2] = Antiproliferative activity against human CRL-2813 cells incubated for 5 days by SRB assay; format: functional, cell-based; conditions: CRL2813, 120 h
# [3] = molecular target: Interferon-induced, double-stranded RNA-activated protein kinase (Homo sapiens) (UniProt P19525); assay: Induction of eIF2alpha phosphorylation (unknown origin) assessed as fold increase in ATF-4 stimulation at 10 uM by dual luciferase reporter assay
# [4] = molecular target: Interferon-induced, double-stranded RNA-activated protein kinase (Homo sapiens) (UniProt P19525); assay: Induction of eIF2alpha phosphorylation (unknown origin) assessed as fold increase in ATF-4 stimulation at 20 uM by dual luciferase reporter assay; conditions: filed as activator
# [5] = molecular target: Interferon-induced, double-stranded RNA-activated protein kinase (Homo sapiens) (UniProt P19525); assay: Induction of eIF2alpha phosphorylation (unknown origin) assessed as fold increase in ATF-4 stimulation at 80 uM by dual luciferase reporter assay; conditions: filed as activator
# [6] = molecular target: Interferon-induced, double-stranded RNA-activated protein kinase (Homo sapiens) (UniProt P19525); assay: Induction of eIF2alpha phosphorylation (unknown origin) assessed as fold increase in ATF-4 stimulation at 40 uM by dual luciferase reporter assay; conditions: filed as activator
# [7] = molecular target: Interferon-induced, double-stranded RNA-activated protein kinase (Homo sapiens) (UniProt P19525); assay: Induction of eIF2alpha phosphorylation in human CRL-2813 cells assessed as fold increase in CHOP expression incubated for 6 hrs by RT-PCR analysis; format: cell-based; conditions: filed as activator, dose 10.0 µM
# [8] = molecular target: Interferon-induced, double-stranded RNA-activated protein kinase (Homo sapiens) (UniProt P19525); assay: Induction of eIF2alpha phosphorylation (unknown origin) assessed as fold increase in ATF-4 stimulation at 2.5 uM by dual luciferase reporter assay; conditions: filed as activator
# [9] = molecular target: Interferon-induced, double-stranded RNA-activated protein kinase (Homo sapiens) (UniProt P19525); assay: Induction of eIF2alpha phosphorylation (unknown origin) assessed as fold increase in ATF-4 stimulation at 5 uM by dual luciferase reporter assay; conditions: filed as activator
# Chain of Interferon-induced, double-stranded RNA-activated protein kinase (Homo sapiens) (P19525 whole entry): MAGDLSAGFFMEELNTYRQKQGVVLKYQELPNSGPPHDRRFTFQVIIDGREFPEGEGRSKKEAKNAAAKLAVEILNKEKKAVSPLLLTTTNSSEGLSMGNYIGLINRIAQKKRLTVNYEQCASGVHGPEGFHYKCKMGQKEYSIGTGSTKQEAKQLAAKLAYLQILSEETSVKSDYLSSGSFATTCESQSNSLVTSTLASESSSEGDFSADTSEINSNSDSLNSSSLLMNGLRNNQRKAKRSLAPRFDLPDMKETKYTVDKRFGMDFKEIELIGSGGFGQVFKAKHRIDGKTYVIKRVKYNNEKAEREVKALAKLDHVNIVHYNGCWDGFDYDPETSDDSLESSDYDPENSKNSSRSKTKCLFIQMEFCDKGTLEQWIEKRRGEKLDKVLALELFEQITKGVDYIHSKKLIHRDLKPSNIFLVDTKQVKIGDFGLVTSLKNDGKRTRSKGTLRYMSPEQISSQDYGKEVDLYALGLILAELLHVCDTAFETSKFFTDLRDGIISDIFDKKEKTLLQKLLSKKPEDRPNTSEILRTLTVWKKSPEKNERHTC
Compound,IC50 [1],IC50 [2],fold change (FC) [6],further results
CCN(CC)CCOc1ccc(C(C)(C)C)cc1C1(c2cc(C(C)(C)C)ccc2OCCN(CC)CC)C(=O)Nc2ccccc21,≤ 540 nM,1000 nM,–,fold change (FC) [3]: < 0.54
CCN(CC)CCOc1ccc(C(C)(C)C)cc1C1(c2cc(C(C)(C)C)ccc2O)C(=O)Nc2ccccc21 (stereo not drawn),600 nM,1500 nM,–,fold change (FC) [4]: 16.7
CC(C)(C)c1ccc(OCCO)c(C2(c3cc(C(C)(C)C)ccc3OCCO)C(=O)Nc3ccccc32)c1,2700 nM,2900 nM,–,fold change (FC) [4]: 3.42
CC(C)(C)c1ccc(O)c(C2(c3cc(C(C)(C)C)ccc3OCCN3CCOCC3)C(=O)N(CCN3CCOCC3)c3ccccc32)c1 (stereo not drawn),3600 nM,2000 nM,–,fold change (FC) [5]: 31.9
CN(C)CCOc1ccc(C(C)(C)C)cc1C1(c2cc(C(C)(C)C)ccc2O)C(=O)Nc2ccccc21 (stereo not drawn),1900 nM,1200 nM,–,fold change (FC) [4]: 4.65
CN1CCN(CCOc2ccc(C(C)(C)C)cc2C2(c3cc(C(C)(C)C)ccc3O)C(=O)Nc3ccccc32)CC1 (stereo not drawn),750 nM,1400 nM,–,fold change (FC) [4]: 24.6
CC(C)(C)c1ccc(O)c(C2(c3cc(C(C)(C)C)ccc3O)C(=O)N(CCBr)c3ccccc32)c1,1500 nM,1400 nM,9.6,–
CC(=O)OCCOc1ccc(C(C)(C)C)cc1C1(c2cc(C(C)(C)C)ccc2OCCOC(C)=O)C(=O)Nc2ccccc21,2500 nM,2000 nM,–,fold change (FC) [5]: 2.07
CC(C)(C)c1ccc(OCCN2CCOCC2)c(C2(c3cc(C(C)(C)C)ccc3OCCN3CCOCC3)C(=O)Nc3ccccc32)c1,1680 nM,2400 nM,–,fold change (FC) [4]: 4.98; fold change (FC) [7]: 3
CC(C)(C)c1ccc(O)c(C2(c3cc(C(C)(C)C)ccc3OCCBr)C(=O)Nc3ccccc32)c1 (stereo not drawn),2400 nM,1000 nM,12.9,–
CC(C)(C)c1ccc(O)c(C2(c3cc(C(C)(C)C)ccc3OCCN3CCCCC3)C(=O)Nc3ccccc32)c1 (stereo not drawn),700 nM,3350 nM,–,fold change (FC) [4]: 4.15
CN(C)CCN1C(=O)C(c2cc(C(C)(C)C)ccc2OCCN2CCCC2)(c2cc(C(C)(C)C)ccc2OCCN2CCCC2)c2ccccc21,540 nM,800 nM,–,fold change (FC) [8]: 11.8
CN(C)CCOc1ccc(C(C)(C)C)cc1C1(c2cc(C(C)(C)C)ccc2O)C(=O)N(CCN(C)C)c2ccccc21 (stereo not drawn),300 nM,900 nM,–,fold change (FC) ([3]; filed as activator): 14.3
CN(C)CCN1C(=O)C(c2cc(C(C)(C)C)ccc2O)(c2cc(C(C)(C)C)ccc2OCCN2CCCC2)c2ccccc21 (stereo not drawn),≤ 540 nM,≤ 540 nM,–,fold change (FC) ([3]; filed as activator): 9.08
CC(C)(C)c1ccc(OCCN2CCNCC2)c(C2(c3cc(C(C)(C)C)ccc3OCCN3CCNCC3)C(=O)Nc3ccccc32)c1,800 nM,1500 nM,11.4,–
CC(C)(C)c1ccc(OCCN2CCCCC2)c(C2(c3cc(C(C)(C)C)ccc3OCCN3CCCCC3)C(=O)Nc3ccccc32)c1,2140 nM,11600 nM,–,fold change (FC) [5]: 5.91
CC(C)(C)c1ccc(O)c(C2(c3cc(C(C)(C)C)ccc3OCCN3CCNCC3)C(=O)Nc3ccccc32)c1 (stereo not drawn),900 nM,1500 nM,–,fold change (FC) [4]: 15.1
CC(C)(C)c1ccc(O)c(C2(c3cc(C(C)(C)C)ccc3OCCN3CCCC3)C(=O)N(CCN3CCCC3)c3ccccc32)c1 (stereo not drawn),3600 nM,7250 nM,9.09,–

Compound,IC50 [1],IC50 [2],fold change (FC) [6],further results
CN(C)CCOc1ccc(C(C)(C)C)cc1C1(c2cc(C(C)(C)C)ccc2OCCN(C)C)C(=O)N(CCN(C)C)c2ccccc21,500 nM,700 nM,–,fold change (FC) [8]: 16.8
CN(C)CCN1C(=O)C(c2cc(C(C)(C)C)ccc2O)(c2cc(C(C)(C)C)ccc2O)c2ccccc21,2700 nM,> 20000 nM,–,fold change (FC) [4]: 7.12; fold change (FC) [7]: 3
CC(C)(C)c1ccc(O)c(C2(c3cc(C(C)(C)C)ccc3OCCN3CCCC3)C(=O)Nc3ccccc32)c1 (stereo not drawn),1000 nM,10700 nM,–,fold change (FC) ([3]; filed as activator): 2.73
CC(C)(C)c1ccc(OCCN2CCOCC2)c(C2(c3cc(C(C)(C)C)ccc3OCCN3CCOCC3)C(=O)N(CCN3CCOCC3)c3ccccc32)c1,2300 nM,2700 nM,10.8,fold change (FC) [7]: 3
CC(C)(C)c1ccc(OCCN2CCCC2)c(C2(c3cc(C(C)(C)C)ccc3OCCN3CCCC3)C(=O)N(CCN3CCCC3)c3ccccc32)c1,550 nM,1470 nM,–,fold change (FC) [8]: 12.1
CN(C)CCOc1ccc(C(C)(C)C)cc1C1(c2cc(C(C)(C)C)ccc2OCCN(C)C)C(=O)Nc2ccccc21,10200 nM,12500 nM,1.34,–
CC(C)(C)c1ccc(O)c(C2(c3cc(C(C)(C)C)ccc3OCCO)C(=O)Nc3ccccc32)c1 (stereo not drawn),8800 nM,2900 nM,10.8,–
CC(C)(C)c1ccc(OCCN2CCCC2)c(C2(c3cc(C(C)(C)C)ccc3OCCN3CCCC3)C(=O)Nc3ccccc32)c1,650 nM,800 nM,–,fold change (FC) [9]: 13.9
CCN(CC)CCOc1ccc(C(C)(C)C)cc1C1(c2cc(C(C)(C)C)ccc2OCCN(CC)CC)C(=O)N(CCN(CC)CC)c2ccccc21,≤ 540 nM,720 nM,–,fold change (FC) [8]: 14.3
CC(=O)OCCOc1ccc(C(C)(C)C)cc1C1(c2cc(C(C)(C)C)ccc2O)C(=O)Nc2ccccc21 (stereo not drawn),2700 nM,1600 nM,8.59,–
CC(C)(C)c1ccc(O)c(C2(c3cc(C(C)(C)C)ccc3O)C(=O)N(CCN3CCOCC3)c3ccccc32)c1,2200 nM,1600 nM,4.3,fold change (FC) [7]: 3
COCOc1ccc(C(C)(C)C)cc1C1(c2cc(C(C)(C)C)ccc2O)C(=O)Nc2ccccc21 (stereo not drawn),4200 nM,2200 nM,1.21,–
CN1CCN(CCOc2ccc(C(C)(C)C)cc2C2(c3cc(C(C)(C)C)ccc3OCCN3CCN(C)CC3)C(=O)Nc3ccccc32)CC1,200 nM,740 nM,–,fold change (FC) ([3]; filed as activator): 9.7
CN1CCN(CCOc2ccc(C(C)(C)C)cc2C2(c3cc(C(C)(C)C)ccc3OCCN3CCN(C)CC3)C(=O)N(CCN3CCN(C)CC3)c3ccccc32)CC1,600 nM,–,–,fold change (FC) ([3]; filed as activator): 6.73
CC(C)(C)c1ccc(O)c(C2(c3cc(C(C)(C)C)ccc3O)C(=O)Nc3ccccc32)c1,2800 nM,10200 nM,–,fold change (FC) [7]: 3; fold change (FC) ([3]; filed as activator): 5.2
CC(C)(C)c1ccc(O)c(C2(c3cc(C(C)(C)C)ccc3OCCBr)C(=O)N(CCBr)c3ccccc32)c1 (stereo not drawn),4600 nM,700 nM,–,fold change (FC) [5]: 1.99
CC(C)(C)c1ccc(O)c(C2(c3cc(C(C)(C)C)ccc3OCCN3CCOCC3)C(=O)Nc3ccccc32)c1 (stereo not drawn),≤ 540 nM,1650 nM,5.69,fold change (FC) [7]: 3
COCCOc1ccc(C(C)(C)C)cc1C1(c2cc(C(C)(C)C)ccc2OCCOC)C(=O)Nc2ccccc21,4600 nM,700 nM,–,fold change (FC) [5]: 1.58
